# Experimental data reported in ChEMBL document CHEMBL1201862, “PubChem BioAssay data set” (2004).
# Active and inactive are the calls of the source.
# Assays:
# [1] = target: T1, High affinity choline transporter 1 (Homo sapiens, UniProt Q9GZV3); experiment: human choline transporter blockers, potency – cell-based, 5-point CRC, membrane potential dye, dose response (AID 504840); assay type: functional
# T1 sequence (Q9GZV3 whole entry): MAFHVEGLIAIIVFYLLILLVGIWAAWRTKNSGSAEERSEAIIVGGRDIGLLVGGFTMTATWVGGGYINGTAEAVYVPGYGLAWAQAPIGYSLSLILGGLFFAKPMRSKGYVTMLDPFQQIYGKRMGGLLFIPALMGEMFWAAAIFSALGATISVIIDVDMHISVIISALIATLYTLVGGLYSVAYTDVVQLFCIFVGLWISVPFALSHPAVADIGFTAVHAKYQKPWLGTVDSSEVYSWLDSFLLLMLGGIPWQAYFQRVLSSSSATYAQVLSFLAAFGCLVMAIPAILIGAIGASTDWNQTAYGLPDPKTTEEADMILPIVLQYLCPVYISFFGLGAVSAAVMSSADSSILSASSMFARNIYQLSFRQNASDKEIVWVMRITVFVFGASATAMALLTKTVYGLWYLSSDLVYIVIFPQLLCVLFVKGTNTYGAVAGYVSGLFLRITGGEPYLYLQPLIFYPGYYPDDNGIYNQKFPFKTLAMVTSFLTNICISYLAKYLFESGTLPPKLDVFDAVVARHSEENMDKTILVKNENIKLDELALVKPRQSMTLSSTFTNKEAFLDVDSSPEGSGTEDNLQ
# [2] = target: Heat shock protein HSP 90-alpha (Homo sapiens, UniProt P07900); assay type: functional, organism-based
# [3] = Vero E6 cell cytotoxicity, dose response, cytotoxicity control for non-replicating M. tuberculosis project, secondary assay (AID 492998); assay type: functional, VeroE6; conditions: Vero C1008
# [4] = THP-1 cell cytotoxicity, dose response, cytotoxicity control for non-replicating M. tuberculosis project (AID 489025); assay type: functional
# cells = assay type: functional
# Cytochrome P450 3A4 = Cytochrome P450 3A4 (Homo sapiens, UniProt P08684);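 note: CYP3A4 tested as one member of a cytochrome P450 panel screen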
# Coagulation factor XII = target: T2, Coagulation factor XII (Homo sapiens, UniProt P00748); assay type: functional;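 note: activated factor XIIa alpha cleaving a fluorogenic AMC peptide substrate; inhibitor potency from loss of enzyme activity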
# T2 sequence (P00748 whole entry): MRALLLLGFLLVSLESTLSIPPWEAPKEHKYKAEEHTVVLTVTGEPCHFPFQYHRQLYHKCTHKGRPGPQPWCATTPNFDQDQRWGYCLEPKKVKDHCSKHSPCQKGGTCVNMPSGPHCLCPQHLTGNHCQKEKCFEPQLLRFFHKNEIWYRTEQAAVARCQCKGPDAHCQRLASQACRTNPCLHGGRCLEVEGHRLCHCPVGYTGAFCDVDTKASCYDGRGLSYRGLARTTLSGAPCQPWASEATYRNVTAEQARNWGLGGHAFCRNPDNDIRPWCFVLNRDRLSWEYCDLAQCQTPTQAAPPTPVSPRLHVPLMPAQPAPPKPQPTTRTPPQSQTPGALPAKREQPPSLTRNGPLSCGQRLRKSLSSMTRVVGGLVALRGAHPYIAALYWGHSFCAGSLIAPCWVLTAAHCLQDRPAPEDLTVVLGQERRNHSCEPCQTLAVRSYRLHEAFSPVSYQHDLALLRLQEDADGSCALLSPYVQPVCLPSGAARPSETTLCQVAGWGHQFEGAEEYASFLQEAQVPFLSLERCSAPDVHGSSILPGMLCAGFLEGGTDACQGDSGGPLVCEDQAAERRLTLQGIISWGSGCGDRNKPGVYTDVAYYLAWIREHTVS
# Cytochrome P450 2C9 = Cytochrome P450 2C9 (Homo sapiens, UniProt P11712)
# Cytochrome P450 2C19 = Cytochrome P450 2C19 (Homo sapiens, UniProt P33261); experiment: Cytochrome panel assay with activity outcomes. Panel member name: p450-cyp2c19 Compounds with AC50 equal or less than 10 uM are considered active; assay type: functional; conditions: read-out: AC50
# [5] = Luminescence Cell-Based Dose Confirmation HTS to Identify Inhibitors of Platelet Dense Granule Release. [Related pubchem assays: 1663 (Primary HTS), 1678 (Summary of Project)]; assay type: functional
# [6] = target: Luciferin 4-monooxygenase (Photinus pyralis, UniProt P08659); experiment: inhibition of purified Photinus pyralis luciferase – biochemical, luminescence, dose response (AID 1891)
# [7] = DRD fibroblast viability loss – cell-based, non-viral oncogenic, luminescence, dose response (AID 1934); assay type: functional; conditions: Homo sapiens
# BJ [8] = experiment: BJ-TERT fibroblast viability loss – cell-based, RAS-independent, luminescence, dose response (AID 1933); assay type: functional; conditions: Homo sapiens
# [9] = target: T3, Heat shock factor protein 1 (Mus musculus, UniProt P38532); experiment: decrease of HSF1-responsive luciferase luminescence – cell-based, NIH3T3, dose retest, confirmation (AID 2382); assay type: functional;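 note: NIH3T3 fibroblasts with HSF1-driven luciferase reporter stressed by proteasome inhibitor MG132; luminescence from HSF1-driven luciferase expression after 8 hours of MG132 stress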
# T3 sequence (P38532 whole entry): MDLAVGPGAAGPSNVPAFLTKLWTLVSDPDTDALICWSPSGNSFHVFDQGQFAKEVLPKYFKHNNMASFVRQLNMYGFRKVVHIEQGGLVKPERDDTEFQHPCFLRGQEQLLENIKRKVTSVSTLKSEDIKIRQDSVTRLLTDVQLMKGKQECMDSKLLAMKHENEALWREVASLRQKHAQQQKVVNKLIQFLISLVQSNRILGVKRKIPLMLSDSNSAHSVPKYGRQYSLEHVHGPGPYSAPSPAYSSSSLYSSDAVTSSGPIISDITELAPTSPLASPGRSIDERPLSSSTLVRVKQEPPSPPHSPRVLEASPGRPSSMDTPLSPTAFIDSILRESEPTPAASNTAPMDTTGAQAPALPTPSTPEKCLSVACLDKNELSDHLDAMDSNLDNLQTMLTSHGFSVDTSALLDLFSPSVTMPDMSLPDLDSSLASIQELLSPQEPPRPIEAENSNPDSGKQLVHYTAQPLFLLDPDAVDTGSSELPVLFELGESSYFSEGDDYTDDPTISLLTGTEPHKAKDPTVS
# [10] = HEK-293T viability loss after treatment – luminescence, T-cell screen hits, cytotoxicity control for TCR NF-kB inhibitor project, dose response (AID 489026); assay type: functional, cell-based;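 note: cells exposed to compound about 14 hours before the viability readout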
# BJ [11] = experiment: BJ-TERT-LT-ST fibroblast viability loss – cell-based, RAS-independent, luminescence, dose response (AID 1935); assay type: functional; conditions: Homo sapiens;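 note: BJ fibroblasts immortalized with TERT plus LT and ST oncogenes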
# BJ [12] = experiment: cells; assay type: functional, cell-based; conditions: Homo sapiens
# [13] = target: Glucose-6-phosphate 1-dehydrogenase (Homo sapiens, UniProt P11413); experiment: inhibition of Homo sapiens G6PD, dose series – biochemical, fluorescence, selectivity assay for P. falciparum G6PD inhibitor project, dose response (AID 504792); assay type: functional
# Protein skinhead-1 = target: T4, Protein skinhead-1 (Caenorhabditis elegans, UniProt P34707); assay type: functional
# T4 sequence (P34707 whole entry): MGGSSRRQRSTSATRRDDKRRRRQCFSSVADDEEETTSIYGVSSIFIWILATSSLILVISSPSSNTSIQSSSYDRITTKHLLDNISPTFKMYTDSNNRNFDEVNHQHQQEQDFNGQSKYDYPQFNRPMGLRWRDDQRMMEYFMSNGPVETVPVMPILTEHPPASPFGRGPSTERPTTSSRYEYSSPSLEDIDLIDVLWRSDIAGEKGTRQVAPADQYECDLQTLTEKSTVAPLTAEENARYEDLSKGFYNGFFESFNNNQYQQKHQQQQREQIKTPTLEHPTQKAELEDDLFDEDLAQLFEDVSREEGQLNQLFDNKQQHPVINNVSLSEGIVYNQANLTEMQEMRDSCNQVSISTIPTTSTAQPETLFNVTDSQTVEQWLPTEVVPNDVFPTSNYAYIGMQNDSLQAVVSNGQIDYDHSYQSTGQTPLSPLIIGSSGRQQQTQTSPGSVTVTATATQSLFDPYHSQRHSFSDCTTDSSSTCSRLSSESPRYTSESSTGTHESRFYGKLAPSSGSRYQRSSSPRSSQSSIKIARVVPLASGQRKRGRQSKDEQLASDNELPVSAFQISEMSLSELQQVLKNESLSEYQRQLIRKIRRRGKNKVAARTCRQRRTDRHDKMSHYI
# [14] = reduction of Shn3 3'UTR-driven luciferase in osteoblasts – cell-based, Clone20 osteoblasts, firefly luciferase, cherry-picked, dose response (AID 624132); assay type: functional;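 note: firefly luciferase luminescence from reporter carrying the Shn3 3'UTR in osteoblasts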
# Cytochrome P450 1A2 = target: T5, Cytochrome P450 1A2 (Homo sapiens, UniProt P05177);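 note: PubChem cytochrome P450 panel assay, CYP1A2 panel member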
# T5 sequence (P05177 whole entry): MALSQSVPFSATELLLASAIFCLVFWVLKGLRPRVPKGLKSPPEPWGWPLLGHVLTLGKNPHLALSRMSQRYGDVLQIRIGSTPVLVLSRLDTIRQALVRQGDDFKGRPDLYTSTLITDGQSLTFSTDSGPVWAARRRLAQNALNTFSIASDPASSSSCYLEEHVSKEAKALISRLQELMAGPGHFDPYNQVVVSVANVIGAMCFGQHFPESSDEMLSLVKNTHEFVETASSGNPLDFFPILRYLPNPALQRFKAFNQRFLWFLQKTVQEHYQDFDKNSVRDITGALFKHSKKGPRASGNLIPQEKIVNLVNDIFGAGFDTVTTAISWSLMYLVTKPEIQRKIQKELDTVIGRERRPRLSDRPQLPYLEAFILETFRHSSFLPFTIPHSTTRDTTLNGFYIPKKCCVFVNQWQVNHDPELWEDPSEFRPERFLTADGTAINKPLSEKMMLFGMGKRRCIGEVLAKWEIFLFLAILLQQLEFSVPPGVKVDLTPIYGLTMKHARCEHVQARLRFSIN
# [15] = non-specific 3'UTR reporter inhibition in Clone20-Shn3RL – cell-based, Renilla luciferase, cherry-picked, counter-screen for Shn3 inhibitor project, dose response (AID 624133); assay type: functional
# [16] = loss of viability in HepG2 cells – cell-based, CellTiter-Glo, cherry-picked, cytotoxicity control for Shn3 inhibitor project, dose response (AID 624134); assay type: functional
# [17] = target: Glyceraldehyde-3-phosphate dehydrogenase (Homo sapiens, UniProt P04406)
# [18] = target: T6, Alkaline phosphatase, tissue-nonspecific isozyme (Homo sapiens, UniProt P05186); experiment: potency against alkaline phosphatase TNAP – biochemical, luminescent, dose response, SAR follow-up (AID 1056)
# T6 sequence (P05186 whole entry): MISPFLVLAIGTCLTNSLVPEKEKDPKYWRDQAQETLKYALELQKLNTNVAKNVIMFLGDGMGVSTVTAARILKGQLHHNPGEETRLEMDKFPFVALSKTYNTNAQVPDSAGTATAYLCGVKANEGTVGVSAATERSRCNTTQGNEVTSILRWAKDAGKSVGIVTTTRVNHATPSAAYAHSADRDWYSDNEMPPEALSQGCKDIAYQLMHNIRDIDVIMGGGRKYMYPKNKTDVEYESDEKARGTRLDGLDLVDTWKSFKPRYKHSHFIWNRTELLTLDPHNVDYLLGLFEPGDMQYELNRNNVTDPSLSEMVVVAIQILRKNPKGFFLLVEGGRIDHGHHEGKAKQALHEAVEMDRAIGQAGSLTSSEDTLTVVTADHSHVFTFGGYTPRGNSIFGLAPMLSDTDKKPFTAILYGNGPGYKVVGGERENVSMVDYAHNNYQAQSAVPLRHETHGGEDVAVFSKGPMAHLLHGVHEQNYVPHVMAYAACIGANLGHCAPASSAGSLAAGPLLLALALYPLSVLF
# Cytochrome P450 2C19, sequence (P33261 whole entry): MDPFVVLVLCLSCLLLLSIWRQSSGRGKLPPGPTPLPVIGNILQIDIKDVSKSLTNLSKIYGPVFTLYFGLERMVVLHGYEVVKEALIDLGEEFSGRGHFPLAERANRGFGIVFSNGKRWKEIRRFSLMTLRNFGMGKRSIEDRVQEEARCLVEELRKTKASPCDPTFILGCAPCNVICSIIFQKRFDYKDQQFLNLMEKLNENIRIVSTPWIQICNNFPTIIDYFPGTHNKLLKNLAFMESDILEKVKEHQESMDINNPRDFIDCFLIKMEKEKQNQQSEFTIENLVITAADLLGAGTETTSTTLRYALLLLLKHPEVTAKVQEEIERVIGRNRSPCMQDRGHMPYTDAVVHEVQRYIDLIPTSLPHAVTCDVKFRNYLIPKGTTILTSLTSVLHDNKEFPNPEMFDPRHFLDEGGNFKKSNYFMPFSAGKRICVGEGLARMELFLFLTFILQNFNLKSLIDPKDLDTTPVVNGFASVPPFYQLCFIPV
# Cytochrome P450 3A4, sequence (P08684 whole entry): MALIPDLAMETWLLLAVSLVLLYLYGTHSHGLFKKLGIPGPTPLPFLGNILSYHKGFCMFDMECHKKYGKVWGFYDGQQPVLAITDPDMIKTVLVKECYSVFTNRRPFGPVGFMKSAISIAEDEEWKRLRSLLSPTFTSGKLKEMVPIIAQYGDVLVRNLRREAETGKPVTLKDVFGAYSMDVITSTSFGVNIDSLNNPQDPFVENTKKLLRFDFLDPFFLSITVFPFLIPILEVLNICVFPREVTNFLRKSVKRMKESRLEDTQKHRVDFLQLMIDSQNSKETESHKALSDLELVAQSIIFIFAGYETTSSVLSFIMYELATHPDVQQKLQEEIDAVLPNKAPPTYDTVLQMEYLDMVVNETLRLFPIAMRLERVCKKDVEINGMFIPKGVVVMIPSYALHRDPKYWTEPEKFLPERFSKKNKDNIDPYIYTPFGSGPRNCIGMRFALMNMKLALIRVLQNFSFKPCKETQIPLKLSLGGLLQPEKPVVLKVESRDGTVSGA
# Luciferin 4-monooxygenase, sequence (P08659 whole entry): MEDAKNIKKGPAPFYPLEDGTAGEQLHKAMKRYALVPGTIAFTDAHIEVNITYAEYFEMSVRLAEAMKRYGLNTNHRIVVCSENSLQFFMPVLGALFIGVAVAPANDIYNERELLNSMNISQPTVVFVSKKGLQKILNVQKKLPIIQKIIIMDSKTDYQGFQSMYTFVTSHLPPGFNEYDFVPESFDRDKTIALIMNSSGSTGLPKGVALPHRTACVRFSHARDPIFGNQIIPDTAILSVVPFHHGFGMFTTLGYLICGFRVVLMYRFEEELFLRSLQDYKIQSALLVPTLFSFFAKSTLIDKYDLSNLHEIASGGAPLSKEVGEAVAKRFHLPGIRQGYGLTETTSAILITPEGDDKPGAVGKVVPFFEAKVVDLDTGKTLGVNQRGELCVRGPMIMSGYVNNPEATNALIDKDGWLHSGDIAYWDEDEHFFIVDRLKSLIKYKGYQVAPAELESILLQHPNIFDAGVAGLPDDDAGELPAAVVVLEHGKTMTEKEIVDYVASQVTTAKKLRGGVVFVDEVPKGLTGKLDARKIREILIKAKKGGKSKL
# Glyceraldehyde-3-phosphate dehydrogenase, sequence (P04406 whole entry): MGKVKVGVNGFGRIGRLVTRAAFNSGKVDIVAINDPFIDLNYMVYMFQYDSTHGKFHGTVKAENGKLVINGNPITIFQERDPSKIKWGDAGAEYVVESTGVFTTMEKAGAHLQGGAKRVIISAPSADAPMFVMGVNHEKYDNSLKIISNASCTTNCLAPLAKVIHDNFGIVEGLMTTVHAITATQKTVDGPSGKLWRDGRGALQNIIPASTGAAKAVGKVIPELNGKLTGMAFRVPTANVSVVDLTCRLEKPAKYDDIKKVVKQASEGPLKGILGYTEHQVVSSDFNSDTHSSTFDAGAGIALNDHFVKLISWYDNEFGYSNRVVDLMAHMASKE
# Cytochrome P450 2C9, sequence (P11712 whole entry): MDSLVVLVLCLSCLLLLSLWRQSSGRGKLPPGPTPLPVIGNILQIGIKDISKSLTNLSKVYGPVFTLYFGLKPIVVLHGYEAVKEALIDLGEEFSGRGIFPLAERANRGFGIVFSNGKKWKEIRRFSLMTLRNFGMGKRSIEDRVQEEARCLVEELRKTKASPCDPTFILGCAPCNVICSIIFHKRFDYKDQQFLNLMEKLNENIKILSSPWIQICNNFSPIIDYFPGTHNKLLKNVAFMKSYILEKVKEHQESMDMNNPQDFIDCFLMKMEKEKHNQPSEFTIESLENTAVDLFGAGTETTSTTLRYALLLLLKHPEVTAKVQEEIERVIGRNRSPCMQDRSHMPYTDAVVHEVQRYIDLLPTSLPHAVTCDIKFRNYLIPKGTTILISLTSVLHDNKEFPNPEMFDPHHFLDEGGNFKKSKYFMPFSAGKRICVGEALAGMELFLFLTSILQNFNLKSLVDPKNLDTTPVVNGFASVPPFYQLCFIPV
# Glucose-6-phosphate 1-dehydrogenase, sequence (P11413 whole entry): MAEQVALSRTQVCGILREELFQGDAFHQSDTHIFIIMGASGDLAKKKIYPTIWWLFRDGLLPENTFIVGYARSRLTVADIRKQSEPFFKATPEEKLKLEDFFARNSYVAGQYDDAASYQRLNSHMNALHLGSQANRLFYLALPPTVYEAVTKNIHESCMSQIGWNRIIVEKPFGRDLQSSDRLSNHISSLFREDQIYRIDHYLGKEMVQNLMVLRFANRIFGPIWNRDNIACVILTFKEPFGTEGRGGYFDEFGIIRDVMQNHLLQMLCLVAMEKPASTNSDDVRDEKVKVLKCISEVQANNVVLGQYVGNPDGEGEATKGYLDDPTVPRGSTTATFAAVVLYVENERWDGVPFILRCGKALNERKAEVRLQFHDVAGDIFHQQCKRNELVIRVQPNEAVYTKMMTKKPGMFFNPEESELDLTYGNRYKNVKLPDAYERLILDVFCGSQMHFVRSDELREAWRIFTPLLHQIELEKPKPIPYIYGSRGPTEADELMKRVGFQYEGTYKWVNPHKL
compound,measurement,setting,value
C=Cn1cc[n+](CC(=O)c2ccc(Br)cc2)c1,IC50,[1],15.1 µM (active)
O=C(Nc1nnc(-c2ccc(F)cc2)o1)c1cc(Cl)sc1Cl,IC50,[1],14.5 µM (active)
same,AC50,[2],1.99 µM (active)
same,CC50,[3],15.3 µM (active)
same,CC50,[4],24.2 µM (active)
same,IC50,cells,0.24 µM (active)
O=C(c1cccc(F)c1)N1CCC2(CC1)CN(c1ccc(-c3ccccc3)cc1)C2,AC50,Cytochrome P450 3A4,inconclusive
CCOC(=O)C1(Cc2cccc(F)c2)CCN(C(=O)Cn2cnnn2)CC1,IC50,Coagulation factor XII,> 50 µM (inactive)
CC(=O)O[C@H]1CC[C@@]2(C)C(=CC[C@@H]3[C@H]2CC[C@]2(C)C(=O)CC[C@H]32)C1,AC50,Cytochrome P450 3A4,inconclusive
same,AC50,Cytochrome P450 2C9,15.8 µM (inconclusive)
same,AC50,Cytochrome P450 2C19,5.01 µM (inconclusive)
CCOC(=O)c1c(C)nc2sc3c(=O)n(-c4ccc(OC)cc4)nnc3c2c1-c1ccc(OC)cc1,AC50,Cytochrome P450 3A4,inconclusive
same,EC50,[5],> 112 µM (not active)
same,AC50,Cytochrome P450 2C19,2.51 µM (inconclusive)
same,EC50,[6],> 112 µM (not active)
CC(C)Cn1c(-c2ccccc2)nc2ccccc2c1=O,IC50,Coagulation factor XII,> 50 µM (inactive)
Cc1ccc(-c2cc3c(N=O)c4ccccc4c-3[nH]n2)cc1,EC50,[7],6.32 µM (active)
same,EC50,BJ [8],6.45 µM (active)
same,EC50,[9],4.95 µM (active)
same,IC50,[10],> 80 µM (inactive)
same,EC50,[5],3.05 µM (active)
same,EC50,BJ [11],13.1 µM (active)
same,EC50,[6],0.207 µM (active)
same,EC50,BJ [12],6.73 µM (active)
COc1ccccc1CN1C(=O)[C@@H]2C(CCC(N)=O)NC3(C(=O)Nc4c3ccc(Cl)c4C)[C@@H]2C1=O (stereo not given in full),IC50,[1],16.6 µM (active)
Cc1cc(NC(=O)c2ccccc2F)n(-c2nc3ccccc3[nH]2)n1,CC50,[3],17.6 µM (active)
same,CC50,[4],> 40 µM (active)
same,IC50,cells,> 50 µM (active)
COc1ccc(CCn2c(NN=C3CCCCC3)nc3c2c(=O)[nH]c(=O)n3C)cc1,IC50,[13],11.6 µM (active)
CCCCc1ccc(NC(=O)CSc2nc(=O)n(CCCN3CCOCC3)c3c2CCC3)cc1,IC50,[1],13.8 µM (active)
Cc1c(C(=O)Nc2cccc(C(F)(F)F)c2)oc2ccc(S(=O)(=O)N3CCOCC3)cc12,AC50,Cytochrome P450 3A4,inconclusive
same,IC50,Protein skinhead-1,> 100 µM (inactive)
same,AC50,[14],3.8 µM (active)
same,AC50,Cytochrome P450 1A2,10 µM (inconclusive)
same,AC50,[15],> 70 µM (inactive)
same,AC50,[16],> 70 µM (inactive)
CCOc1ccc(CC(=O)C2C(=O)CCCC2=O)cc1OCC,AC50,Cytochrome P450 3A4,inconclusive
same,AC50,Cytochrome P450 2C19,39.8 µM (inconclusive)
O=C1c2ccccc2C(=O)N1c1nc(-c2cccnc2)n[nH]1,IC50,[17],> 100 µM (not active)
same,IC50,[18],> 100 µM (inactive)
